Like-named read-outs stand apart in the source and are kept apart here.
What was measured:
TF-VIIa = target: T1, TF-VIIa (Homo sapiens, UniProt P08709); assay: TF-VIIa Assay; type: biochemical
T1 construct: 2nM recombinant human factor VIIa; purchased American Diagnostica, Greenwich CT; host or cells: soluble TF made in house in E. coli

Human factor Xa = Human factor Xa (Homo sapiens, UniProt P00742)
[1] = read-out: IC50 or % Inhibition TF-VIIa (30 µM); cells given as a plain number (IC50)
[2] = read-out: IC50 or % Inhibition TF-VIIa (30 µM); cells without % sign: IC50
[3] = cells given as a plain number (IC50); read-out: IC50 or % Inhibition TF-VIIa (30 µM)

T1 sequence (P08709 213-466 limits assumed): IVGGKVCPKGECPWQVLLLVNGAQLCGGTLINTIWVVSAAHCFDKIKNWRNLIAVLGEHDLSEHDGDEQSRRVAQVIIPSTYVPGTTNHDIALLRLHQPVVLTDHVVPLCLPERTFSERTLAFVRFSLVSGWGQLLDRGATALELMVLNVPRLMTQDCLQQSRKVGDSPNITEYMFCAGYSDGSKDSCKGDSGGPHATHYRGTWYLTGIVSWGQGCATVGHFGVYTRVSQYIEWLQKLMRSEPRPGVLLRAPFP
T1 sequence (P08709 61-212 limits assumed): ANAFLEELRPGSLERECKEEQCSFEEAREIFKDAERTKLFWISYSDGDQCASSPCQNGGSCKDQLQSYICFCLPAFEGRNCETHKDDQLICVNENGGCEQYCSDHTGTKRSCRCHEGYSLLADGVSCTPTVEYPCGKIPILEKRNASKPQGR
T1 sequence (P13726 33-251 partner limits assumed): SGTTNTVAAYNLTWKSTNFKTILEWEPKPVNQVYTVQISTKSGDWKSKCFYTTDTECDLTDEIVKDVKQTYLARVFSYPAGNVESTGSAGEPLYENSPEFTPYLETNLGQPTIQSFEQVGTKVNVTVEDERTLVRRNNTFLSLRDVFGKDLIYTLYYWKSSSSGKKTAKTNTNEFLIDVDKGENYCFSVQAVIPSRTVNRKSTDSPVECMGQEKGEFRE
Sequence of Human factor Xa (P00742 235-488 limits assumed): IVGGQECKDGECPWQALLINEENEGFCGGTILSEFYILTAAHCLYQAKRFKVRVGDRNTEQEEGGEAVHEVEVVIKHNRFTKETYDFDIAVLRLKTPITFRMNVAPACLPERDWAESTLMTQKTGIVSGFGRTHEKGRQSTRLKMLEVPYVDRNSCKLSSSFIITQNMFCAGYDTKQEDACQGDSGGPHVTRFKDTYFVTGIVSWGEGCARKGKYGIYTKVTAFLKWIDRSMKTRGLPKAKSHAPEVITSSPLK
Sequence of Human factor Xa (P00742 41-179 limits assumed): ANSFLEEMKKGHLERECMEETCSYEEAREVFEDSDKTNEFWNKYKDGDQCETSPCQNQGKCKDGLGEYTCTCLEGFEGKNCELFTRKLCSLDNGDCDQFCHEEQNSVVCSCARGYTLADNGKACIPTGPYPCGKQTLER

| IC50 (TF-VIIa; [1]) | IC50 or % Inhibition Factor Xa (30 µM) (Human factor Xa) | Structure (SMILES) | other results |
| --- | --- | --- | --- |
| – | – | O=C(Cn1c(-c2ccccc2)c(Cl)nc(NCCc2ccncc2)c1=O)NCCc1ccncc1 [Example E-0014] | % Inhibition TF-VIIa (100 µM) (TF-VIIa): 0%; % Inhibition Factor Xa (100 µM) (Human factor Xa): 0% |
| – | – | O=C(Cn1c(CCc2ccccc2)c(Cl)nc(NCCc2ccncc2)c1=O)NCCc1ccncc1 [Example E-0070] | % Inhibition TF-VIIa (100 µM) (TF-VIIa): 0%; % Inhibition Factor Xa (100 µM) (Human factor Xa): 0% |
| 11 µM | 9% | N=C(N)c1ccc(CNC(=O)Cn2c(-c3ccccc3)c(Cl)nc(NCc3c(F)cccc3F)c2=O)cc1 [1512-43] | – |
| 0.8 µM | 0% | N=C(N)c1ccc(CNC(=O)Cn2c(-c3c(Cl)cccc3Cl)c(Cl)nc(NC3CCC3)c2=O)cc1 [1517-12] | – |
| – | 11% | CC(CNc1nc(Cl)c(-c2cccc(N)c2)n(CC(=O)NCc2ccc(C(=N)N)cc2)c1=O)N(C)C (stereo not drawn) [1543-19] | IC50 (TF-VIIa; [2]): 0.22 µM |
| – | 34% | N=C(N)c1ccc(CNC(=O)Cn2c(-c3cccc(N)c3)c(Cl)nc(NCCN3CCCC3)c2=O)cc1 [1543-03] | IC50 (TF-VIIa; [2]): 0.64 µM |
| 3 µM | 0% | C[C@H](C(=O)NCc1ccc(C(=N)N)cc1)n1c(-c2ccccc2)c(Cl)nc(NC2CCC2)c1=O [1517-11] | – |
| – | 1% | N=C(N)c1ccc(CNC(=O)Cn2c(-c3ccccc3)c(Cl)nc(NC3Cc4ccccc4C3)c2=O)cc1 [1507-08] | IC50 or % Inhibition TF-VIIa (30 µM) (TF-VIIa): 7% |
| – | 0% | CCCNc1nc(Cl)c(-c2ccccc2)n(CC(=O)NCc2ccc(C(=N)N)cc2)c1=O [1517-33] | IC50 (TF-VIIa; [3]): 0.4 µM |
| – | 16% | N=C(N)c1ccc(CNC(=O)Cn2c(-c3ccc(-c4ccccc4)cc3)c(Cl)nc(NCc3ccncc3)c2=O)cc1 [1471-67] | IC50 or % Inhibition TF-VIIa (30 µM) (TF-VIIa): 12% |
| – | 4% | Cc1c(Cl)nc(NCCc2ccccc2)c(=O)n1CC(=O)NCc1ccc(C(=N)N)cc1 [1471-7] | IC50 (TF-VIIa; [3]): 4.28 µM |
| – | 11% | COc1ccc(-c2c(Cl)nc(NCCc3cccnc3)c(=O)n2CC(=O)NCc2ccc(C(=N)N)cc2)cc1 [1471-40] | IC50 or % Inhibition TF-VIIa (30 µM) (TF-VIIa): 40% |
| – | 10% | CC(C)Nc1nc(Cl)c(-c2cccc(N)c2)n(CC(=O)NCc2ccc(C(=N)N)cc2F)c1=O [1543-40] | IC50 (TF-VIIa; [2]): 0.04 µM |
| – | 29% | N=C(N)c1ccc(CNC(=O)Cn2c(-c3ccccc3)c(Cl)nc(NCc3ccccc3)c2=O)cc1 [1471-9] | IC50 (TF-VIIa; [3]): 0.77 µM |
| – | 12% | N=C(N)c1ccc(CNC(=O)Cn2c(-c3ccc(-c4ccccc4)cc3)c(Cl)nc(NCCc3cccc(Cl)c3)c2=O)cc1 [1471-70] | IC50 or % Inhibition TF-VIIa (30 µM) (TF-VIIa): 10% |
| – | – | COc1ccc(-c2c(Cl)nc(NCc3ccccc3)c(=O)n2CC(=O)NCCc2ccncc2)cc1 [Example E-0097] | % Inhibition TF-VIIa (100 µM) (TF-VIIa): 0%; % Inhibition Factor Xa (100 µM) (Human factor Xa): 3% |
| – | 13% | N=C(N)c1ccc(CNC(=O)Cn2c(-c3ccc4c(c3)OCO4)c(Cl)nc(NCCN3CCOCC3)c2=O)cc1 [1471-44] | IC50 or % Inhibition TF-VIIa (30 µM) (TF-VIIa): 34% |
| – | 9% | N=C(N)c1ccc(CNC(=O)Cn2c(-c3ccccc3)c(Cl)nc(NCc3cc(F)ccc3F)c2=O)cc1 [1512-36] | IC50 (TF-VIIa; [3]): 3.8 µM |
| 0.9 µM | 0% | N=C(N)c1ccc(CNC(=O)Cn2c(-c3ccsc3)c(Cl)nc(NCCc3cccc(Cl)c3)c2=O)cc1 [1517-19] | – |
| 0.6 µM | 0% | N=C(N)c1ccc(CNC(=O)Cn2c(-c3ccsc3)c(Cl)nc(NCCc3ccccc3)c2=O)cc1 [1517-13] | – |
| 16.7 µM | 10% | COc1ccc(CCNc2nc(Cl)c(-c3ccccc3)n(CC(=O)NCc3ccc(C(=N)N)cc3)c2=O)cc1OC [1512-05] | – |
| – | 17% | N=C(N)c1ccc(CNC(=O)Cn2c(-c3ccccc3)c(Cl)nc(NCC(F)(F)F)c2=O)cc1 [1507-41] | IC50 or % Inhibition TF-VIIa (30 µM) (TF-VIIa): 48% |
| – | 0% | CCCC(CCC)Nc1nc(Cl)c(-c2ccccc2)n(CC(=O)NCc2ccc(C(=N)N)cc2)c1=O [1517-26] | IC50 (TF-VIIa; [3]): 1.8 µM |
| – | – | COc1ccc(-c2c(Cl)nc(NCCc3ccncc3)c(=O)n2CC(=O)NCCc2ccncc2)cc1 [Example E-0038] | % Inhibition TF-VIIa (100 µM) (TF-VIIa): 0%; % Inhibition Factor Xa (100 µM) (Human factor Xa): 0% |
| – | 0% | N=C(N)c1ccc(CNC(=O)C(Cc2ccccc2)n2c(-c3ccccc3)c(Cl)nc(NC3CCC3)c2=O)cc1 (stereo not drawn) [1517-08] | IC50 or % Inhibition TF-VIIa (30 µM) (TF-VIIa): 43% |
| – | 21% | N=C(N)c1ccc(CNC(=O)Cn2c(-c3ccccc3)c(Cl)nc(NCCCCc3ccccc3)c2=O)cc1 [1507-43] | IC50 (TF-VIIa; [3]): 4.1 µM |
| – | 12% | CN(C)CCNc1nc(Cl)c(-c2cccc(N)c2)n(CC(=O)NCc2ccc(C(=N)N)cc2)c1=O [1543-09] | IC50 (TF-VIIa; cells without % sign: IC50; read-out: IC50 or % Inhibition TF-VIIa (30 µM)): 0.69 µM |

| IC50 (TF-VIIa; [1]) | IC50 or % Inhibition Factor Xa (30 µM) (Human factor Xa) | Structure (SMILES) | other results |
| --- | --- | --- | --- |
| 15.7 µM | 17% | N=C(N)c1ccc(CNC(=O)Cn2c(-c3ccc4c(c3)OCO4)c(Cl)nc(NCCc3cccnc3)c2=O)cc1 [1471-48] | – |
| – | 2% | CCc1c(Cl)nc(NCCc2ccccc2)c(=O)n1CC(=O)NCc1ccc(C(=N)N)cc1 [1471-63] | IC50 (TF-VIIa; [3]): 3.45 µM |
| 17.5 µM | 24% | COc1ccc(-c2c(Cl)nc(NCCc3ccc(Cl)cc3)c(=O)n2CC(=O)NCc2ccc(C(=N)N)cc2)cc1 [1471-34] | – |
| – | 6% | CN(C)CCNc1nc(Cl)c(-c2ccccc2)n(CC(=O)NCc2ccc(C(=N)N)cc2)c1=O [1512-15] | IC50 (TF-VIIa; [3]): 20.9 µM |
| – | 4% | N=C(N)c1ccc(CNC(=O)Cn2c(-c3ccccc3)c(Cl)nc(NCc3cc(F)cc(C(F)(F)F)c3)c2=O)cc1 [1512-29] | IC50 or % Inhibition TF-VIIa (30 µM) (TF-VIIa): 47% |
| – | – | O=C(Cn1c(-c2ccccc2)c(Cl)nc(NCc2ccccc2)c1=O)NCCc1ccncc1 [Example E-0009] | % Inhibition TF-VIIa (100 µM) (TF-VIIa): 0%; % Inhibition Factor Xa (100 µM) (Human factor Xa): 1% |
| – | 17% | N=C(N)c1ccc(CNC(=O)Cn2c(-c3cccc(Cl)c3)c(Cl)nc(NCCc3ccccc3)c2=O)cc1 [1471-31] | IC50 (TF-VIIa; [3]): 1.98 µM |
| – | 4% | N=C(N)c1ccc(CNC(=O)Cn2c(-c3ccccc3)c(Cl)nc(NCc3cc(F)cc(F)c3)c2=O)cc1 [1512-39] | IC50 (TF-VIIa; [3]): 6 µM |
| 19.9 µM | 28% | N=C(N)c1ccc(CNC(=O)Cn2c(-c3ccccc3)c(Cl)nc(NC(c3ccccc3)c3ccccc3)c2=O)cc1 [1507-35] | – |
| 13 µM | 0% | CCc1c(Cl)nc(NCCN2CCOCC2)c(=O)n1CC(=O)NCc1ccc(C(=N)N)cc1 [1471-60] | – |
| 1.3 µM | 0% | N=C(N)c1ccc(CNC(=O)Cn2c(-c3c(Cl)cccc3Cl)c(Cl)nc(NCCc3ccccc3)c2=O)cc1 [1517-18] | – |
| – | 41% | N=C(N)c1ccc(CNC(=O)Cn2c(-c3cccc(N)c3)c(Cl)nc(NCCN3CCCCC3)c2=O)cc1 [1543-15] | IC50 (TF-VIIa; [2]): 0.95 µM |
| 2.5 µM | 0% | N=C(N)c1ccc(CNC(=O)Cn2c(-c3c(Cl)cccc3Cl)c(Cl)nc(NCc3ccccc3)c2=O)cc1 [1517-06] | – |
| 3.02 µM | 2% | CCc1c(Cl)nc(NCCc2cccnc2)c(=O)n1CC(=O)NCc1ccc(C(=N)N)cc1 [1471-64] | – |
| – | 0% | N=C(N)c1ccc(CNC(=O)Cn2c(-c3ccc(-c4ccccc4)cc3)c(Cl)nc(NCCc3ccccc3)c2=O)cc1 [1471-71] | IC50 or % Inhibition TF-VIIa (30 µM) (TF-VIIa): 6% |
| 13.2 µM | 24% | N=C(N)c1ccc(CNC(=O)Cn2c(-c3ccc4c(c3)OCO4)c(Cl)nc(NCCc3ccncc3)c2=O)cc1 [1471-45] | – |
| – | 0% | N=C(N)c1ccc(CNC(=O)Cn2c(-c3ccccc3)c(Cl)nc(NCC3CC3)c2=O)cc1 [1517-43] | IC50 or % Inhibition TF-VIIa (30 µM) (TF-VIIa): 25% |
| 2.18 µM | 21% | N=C(N)c1ccc(CNC(=O)Cn2c(-c3cccc(Cl)c3)c(Cl)nc(NCCc3ccncc3)c2=O)cc1 [1471-29] | – |
| – | 7% | COc1ccc(-c2c(Cl)nc(NCCc3ccncc3)c(=O)n2CC(=O)NCc2ccc(C(=N)N)cc2)cc1 [1471-37] | IC50 or % Inhibition TF-VIIa (30 µM) (TF-VIIa): 39% |
| – | 22% | COc1ccc(-c2c(Cl)nc(NCc3ccncc3)c(=O)n2CC(=O)NCc2ccc(C(=N)N)cc2)cc1 [1471-35] | IC50 or % Inhibition TF-VIIa (30 µM) (TF-VIIa): 37% |
| – | 19% | COC(=O)c1cccc(-c2c(Cl)nc(NC(C)C)c(=O)n2CC(=O)NCc2ccc(C(=N)N)cc2)c1 [Example 64] | IC50 (TF-VIIa; [3]): 0.78 µM |
| 8.17 µM | 10% | Cc1c(Cl)nc(NCc2ccccc2)c(=O)n1CC(=O)NCc1ccc(C(=N)N)cc1 [1471-1] | – |
| – | – | O=C(Cn1c(-c2ccccc2)c(Cl)nc(NCCc2cccc(Cl)c2)c1=O)NCCc1ccncc1 [Example E-0011] | % Inhibition TF-VIIa (100 µM) (TF-VIIa): 0%; % Inhibition Factor Xa (100 µM) (Human factor Xa): 0% |
| 12.6 µM | 22% | N=C(N)c1ccc(CNC(=O)Cn2c(-c3ccc4c(c3)OCO4)c(Cl)nc(NCCc3ccccc3)c2=O)cc1 [1471-47] | – |
| 1.8 µM | 0% | C[C@H](C(=O)NCc1ccc(C(=N)N)cc1)n1c(-c2ccccc2)c(Cl)nc(NCCc2ccccc2)c1=O [1517-17] | – |
| 1.2 µM | 0% | N=C(N)c1ccc(CNC(=O)Cn2c(-c3ccsc3)c(Cl)nc(NCc3ccccc3)c2=O)cc1 [1517-01] | – |
| – | 4% | N=C(N)c1ccc(CNC(=O)Cn2c(-c3ccccc3)c(Cl)nc(NCCc3cccc(C(F)(F)F)c3)c2=O)cc1 [1512-41] | IC50 (TF-VIIa; [3]): 30 µM |

Source: EP1202975B1, “SUBSTITUTED POLYCYCLIC ARYL AND HETEROARYL PYRAZINONES USEFUL FOR SELECTIVE INHIBITION OF THE COAGULATION CASCADE” (Pharmacia Corporation, priority 1999, dated 2000)
